Several values for one entry are separate records, joined by “and”; a condition that tells them apart may be missing. Equal entries are not always repeated. Where two headings read alike, the source gives them in different places.
Columns and labels:
human 5-HT1A [1] = target: T1, human 5-HT1A (Homo sapiens, UniProt P08908); experiment: cell-based
T1 sequence (P08908 1-422): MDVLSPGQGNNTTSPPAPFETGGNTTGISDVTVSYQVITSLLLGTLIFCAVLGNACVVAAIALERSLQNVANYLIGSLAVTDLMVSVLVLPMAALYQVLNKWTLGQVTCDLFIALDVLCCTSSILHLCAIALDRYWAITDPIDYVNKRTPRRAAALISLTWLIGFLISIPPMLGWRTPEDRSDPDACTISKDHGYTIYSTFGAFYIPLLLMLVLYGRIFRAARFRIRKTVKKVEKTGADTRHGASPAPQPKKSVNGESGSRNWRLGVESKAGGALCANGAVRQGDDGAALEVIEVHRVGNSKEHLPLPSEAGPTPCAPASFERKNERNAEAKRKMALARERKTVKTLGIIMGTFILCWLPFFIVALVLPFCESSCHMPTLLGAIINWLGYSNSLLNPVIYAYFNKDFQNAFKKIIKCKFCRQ

5-HT1A [2] = target: T2, 5-HT1A (Homo sapiens, UniProt P08908); experiment: cell-based
5-HT2A [3] = target: T3, 5-HT2A (Homo sapiens, UniProt P28223); experiment: cell-based
T3 sequence (P28223 whole entry): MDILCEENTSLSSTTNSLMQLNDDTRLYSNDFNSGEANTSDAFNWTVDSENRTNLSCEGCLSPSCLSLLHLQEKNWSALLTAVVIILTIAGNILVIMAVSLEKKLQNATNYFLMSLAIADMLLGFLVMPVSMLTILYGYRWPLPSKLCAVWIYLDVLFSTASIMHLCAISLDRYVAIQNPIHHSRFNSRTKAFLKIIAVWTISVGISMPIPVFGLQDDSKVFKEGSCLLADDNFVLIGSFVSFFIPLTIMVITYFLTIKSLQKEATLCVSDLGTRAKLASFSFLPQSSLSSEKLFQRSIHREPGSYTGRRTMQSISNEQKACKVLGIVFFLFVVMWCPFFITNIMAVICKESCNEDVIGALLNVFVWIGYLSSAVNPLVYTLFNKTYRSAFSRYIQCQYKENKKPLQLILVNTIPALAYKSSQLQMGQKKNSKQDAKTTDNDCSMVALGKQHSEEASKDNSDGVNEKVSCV

human 5-HT1A [4] = target: T1, human 5-HT1A; experiment: 5-HT1A-mediated cAMP reduction assay (GloSensor, HEK293-T); details: Table 2
5-HT1A [5] = target: T2, 5-HT1A; experiment: BRET signaling assay: 5-HT1A-mediated activation of heterotrimeric Gi1 (TRUPATH, HEK293-T)
5-HT2A [6] = target: T3, 5-HT2A
[7] = Mouse brain tissue binding; assay type: in vitro ADME
5-HT2B = 5-HT2B (Homo sapiens, UniProt P41595); experiment: IP1 functional assay 5-HT2B; assay type: cell-based
Sequence of 5-HT2B (P41595 whole entry, species assumed): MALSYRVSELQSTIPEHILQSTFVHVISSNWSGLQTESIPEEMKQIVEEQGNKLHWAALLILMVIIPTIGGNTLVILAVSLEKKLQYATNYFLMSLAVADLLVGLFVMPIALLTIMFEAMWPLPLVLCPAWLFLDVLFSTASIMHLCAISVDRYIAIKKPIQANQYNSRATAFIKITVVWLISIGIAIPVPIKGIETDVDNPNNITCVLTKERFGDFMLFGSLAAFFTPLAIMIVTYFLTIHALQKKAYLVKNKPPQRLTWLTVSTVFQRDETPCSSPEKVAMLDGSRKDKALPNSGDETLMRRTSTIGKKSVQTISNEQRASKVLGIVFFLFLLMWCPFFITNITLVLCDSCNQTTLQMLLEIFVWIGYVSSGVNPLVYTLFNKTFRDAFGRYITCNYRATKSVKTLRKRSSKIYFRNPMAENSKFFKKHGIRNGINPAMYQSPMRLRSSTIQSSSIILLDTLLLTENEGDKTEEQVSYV

5-HT2A [8] = target: T3, 5-HT2A; experiment: cell-based; design: expressed in transfected cells; host or cells: HEK293-T
[9] = EC50 (nM) Mean BRET Gq-2A, Table 2
[10] = EC50 (nM) Mean BRET Gi1-1A, Table 2

COc1ccc2[nH]cc(CCN(C)C(C)C)c2c1F [Compound 31, N-(2-(4-fluoro-5-methoxy-1H-indol-3-yl)ethyl)-N-methylpropan-2-amine]
EC50 (human 5-HT1A [1]): 2.98 nM
EC50 (5-HT1A [2]): 14.2 nM
EC50 (5-HT2A [3]): 152 nM

CCCN(CC)CCc1c[nH]c2ccc(OC)c(F)c12 [Compound 5]
EC50 (5-HT2A [3]; [9]): 155 nM
EC50 (human 5-HT1A [4]; pEC50 Gio(cAMP)-1A): 0.151 nM
EC50 (5-HT1A [5]; [10]): 0.95 nM

CCCN(CCc1c[nH]c2ccc(OC)cc12)C(C)C [Compound 15]
EC50 (human 5-HT1A [1]): 26.7 nM
EC50 (5-HT1A [2]): 101 nM and 100 nM
EC50 (5-HT2A [3]): 51.2 nM

COc1ccc2[nH]cc(CCN3CCCC3)c2c1 [Compound 18]
EC50 (human 5-HT1A [1]): 0.16 nM and 0.166 nM
EC50 (5-HT1A [2]): 2.13 nM
EC50 (5-HT2A [3]): 81.5 nM

CCN(CC)CCc1c[nH]c2ccc(OC)c(F)c12 [Compound 27, N,N-diethyl-2-(4-fluoro-5-methoxy-1H-indol-3-yl)ethan-1-amine]
EC50 (human 5-HT1A [1]): 0.21 nM and 0.204 nM
EC50 (5-HT1A [2]): 3.18 nM
EC50 (5-HT2A [3]): 673 nM

CN(C)CCc1c[nH]c2ccc(O)cc12 [Compound 49, Bufotenine, reference compound]
EC50 (5-HT1A [2]): 9.29 nM

CN(C)CCc1c[nH]c2cccc(O)c12 [psilocin, Psilocin]
efficacy at 5-HT2A (5-HT2A [6]): ~50 % of that of serotonin

COc1ccc2[nH]cc(CCN(C(C)C)C(C)C)c2c1F [Compound 33, N-(2-(4-fluoro-5-methoxy-1H-indol-3-yl)ethyl)-N-isopropylpropan-2-amine]
EC50 (human 5-HT1A [1]): 6 nM
EC50 (5-HT1A [2]): 35.8 nM
EC50 (5-HT2A [3]): 338 nM

C=CCN(C)CCc1c[nH]c2ccc(OC)c(F)c12 [Compound 10]
EC50 (5-HT2A [3]; [9]): 156 nM
EC50 (human 5-HT1A [4]; EC50 (nM) Mean Gio(cAMP)-1A): 2.57 nM
EC50 (5-HT1A [5]; [10]): 8.41 nM

NC(=O)N1c2ccccc2C=Cc2ccccc21 [Carbamazepine]
% Bound Mean [7]: 88.2%
% Recovery [7]: 72%
% Unbound [7]: 11.8%
fu [7]: 0.118
% Compound remaining at 4 h ([7]; 4 h): 96%
% Bound R1 ([7]; replicate R1): 89.0%

COc1ccc2[nH]cc(CCN3CC=CC3)c2c1F [Compound 13]
EC50 (5-HT2A [3]; [9]): 120 nM
EC50 (human 5-HT1A [4]; pEC50 Gio(cAMP)-1A): 0.00229 nM
EC50 (5-HT1A [5]; pEC50 BRET Gi1-1A, Table 2): 0.219 nM

CCCN(C)CCc1c[nH]c2ccc(OC)c(F)c12 [Compound 4]
EC50 (5-HT2A [3]; [9]): 115 nM
EC50 (human 5-HT1A [4]; pEC50 Gio(cAMP)-1A): 0.417 nM
EC50 (5-HT1A [5]; [10]): 3.06 nM

CCCN(CCC)CCc1c[nH]c2ccc(OC)cc12 [Compound 13]
EC50 (human 5-HT1A [1]): 3.57 nM and 4.37 nM
EC50 (5-HT1A [2]): 15.4 nM
EC50 (5-HT2A [3]): 20.2 nM

CCCN(CCC)CCc1c[nH]c2ccc(OC)cc12 [Compound 13, 5-methoxy-N,N-dipropyl-tryptamine]
EC50 (5-HT2B): 76 nM
Emax (5-HT2B; read-out: 5-HT2B (IP1) Emax (%5-HT), Table 3): 108%
EC50 (5-HT2A [8]): 82 nM
Emax (5-HT2A [8]; read-out: 5-HT2A (IP1) Emax (%5-HT)): 94%

CN(C)CCc1c[nH]c2ccccc12 [DMT]
EC50 (5-HT2A [6]; Gq BRET, 5-HT2A WT): 94.4 nM
pEC50 (5-HT2A [6]; Gq BRET, 5-HT2A WT): (7.03,

COc1ccc2[nH]cc(CCN3CCCCC3)c2c1F [Compound 12]
EC50 (human 5-HT1A [4]; EC50 (nM) Mean Gio(cAMP)-1A): 2.42 nM
EC50 (5-HT1A [5]; [10]): 8.97 nM

CCCN(CCC)CCc1c[nH]c2ccc(OC)c(F)c12 [Compound 6]
EC50 (5-HT2A [3]; [9]): 142 nM
EC50 (human 5-HT1A [4]; EC50 (nM) Mean Gio(cAMP)-1A): 1.31 nM
EC50 (5-HT1A [5]; [10]): 3.7 nM

COc1cc(CCN)cc(OC)c1OC [Mescaline, reference compound]
efficacy at 5-HT2A (5-HT2A [6]): ~100 % of that of serotonin
relative potency at 5-HT1A and 5-HT2A (5-HT2A [6]; BRET, FIG. 33A): more potent at 5-HT2A
Efficacy as %5HT 5-HT2A BRET Gq (5-HT2A [6]; Table 6, commercial ligands): 92.6 %5HT
EC50 (5-HT2A [3]; EC50 (nM) 5-HT2A BRET Gq, Table 6, commercial ligands): 2400 nM
EC50 (5-HT1A [5]; EC50 (nM) 5-HT1A BRET Gi1, Table 6, commercial ligands): 19600 nM
Efficacy as %5HT 5-HT1A BRET Gi1 (5-HT1A [5]; Table 6, commercial ligands): 42.0 %5HT

CN(C)CCc1c[nH]c2ccc(O)c(F)c12 [Compound 16]
EC50 (5-HT2A [3]; [9]): 7.46 nM
EC50 (human 5-HT1A [4]; pEC50 Gio(cAMP)-1A): 0.251 nM
EC50 (5-HT1A [5]; [10]): 1.13 nM

CN(C)CCc1c[nH]c2cccc(O)c12 [Compound 52, Psilocin, reference compound]
EC50 (human 5-HT1A [1]): 512 nM
EC50 (5-HT1A [2]): 1080 nM and 1070 nM

CCCN(CC)CCc1c[nH]c2ccc(OC)cc12 [Compound 12]
EC50 (human 5-HT1A [1]): 2.47 nM
EC50 (5-HT1A [2]): 8.36 nM
EC50 (5-HT2A [3]): 22.1 nM

CCN(C)CCc1c[nH]c2ccc(OC)cc12 [Compound 9]
EC50 (human 5-HT1A [1]): 4.44 nM
EC50 (5-HT1A [2]): 25.9 nM
EC50 (5-HT2A [3]): 37.7 nM
